Reference: patent US7238689B2, “Isoxazoline derivative and herbicide comprising the same as active ingredient” (Ihara Chemical Industry Co., Ltd., priority 2001, dated 2007)

Columns and labels:
Format in all cases: in vivo
Set-up in all cases: scale not given here
[1] = system: Echinochloa crus-galli (L.) Beauv. var. crus-galli; assay: Herbicidal effect by upland foliage treatment; settings: active ingredient 1000 g/ha, examined at 14th day from treatment
Protocol: (§1) A sand was filled in a plastic pot of 80 cm^2. Seeds of Echinochloa crus-galli (L.) Beauv. var. crus-galli and Setaria viridis (L.) Beauv. were sowed. Breeding was made in a greenhouse for 2 weeks. Wettable powders produced in accordance with the Formulation 1 were diluted with water and sprayed on the whole foliage of plants from above the plants using a small sprayer in an amount of 1,000 liters per 1 hectare so that the amount of each active ingredient became 1,000 g per 1 hectare. Then, breeding was made in the greenhouse, and the herbicidal effect of each wettable powder was examined at the 14th day from the treatment in accordance with the standard shown in Table 21.

[2] = system: Setaria viridis (L.) Beauv.; assay: Herbicidal effect by upland foliage treatment; settings: active ingredient 1000 g/ha, examined at 14th day from treatment
Protocol: as §1

[3] = system: Echinochloa oryzicola Vasing; assay: Herbicidal effect by paddy field soil treatment; settings: wettable powder, active ingredient 1000 g/ha, examined at the 21st day from the treatment
Outline: (§2)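 Seeds sown in puddled paddy soil under 3 cm of water; the next day wettable powders diluted in water were dropped onto the water surface at 1,000 g active ingredient/ha. Plants grown in a greenhouse, with herbicidal effect scored on day 21 against a rating standard.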

[4] = system: Monochoria vaginalis (Murm. f.) Presl var. plantaginea (Roxb.) Solms-Laub.; assay: Herbicidal effect by paddy field soil treatment; settings: wettable powder, active ingredient 1000 g/ha, examined at the 21st day from the treatment
Outline: as §2

[5] = system: Echinochloa crus-galli (L.) Beauv. var. crusgalli; assay: Herbicidal effect by upland field soil treatment; settings: active ingredient 1000 g/ha, examined at 21st day from treatment
Source text: (§3) An upland field soil was filled in a plastic pot of 80 cm^2. Seeds of Echinochloa crus-galli (L.) Beauv. var. crusgalli and Setaria viridis (L.) Beauv. were sowed, followed by covering with the same soil. […] Then, breeding was made in a greenhouse, and the herbicidal effect of each wettable powder was examined at the 21st day from the treatment in accordance with the standard shown in Table 21.

[6] = system: Setaria viridis (L.) Beauv.; assay: Herbicidal effect by upland field soil treatment; settings: active ingredient 1000 g/ha, examined at 21st day from treatment
Source text: as §3

Row | Compound | herbicidal effect (index per standard of Table 21), Echinochloa curs-galli (L.) Beauv. Var. crus-galli [1] | herbicidal effect (index per standard of Table 21), Setaria viridis (L.) Beauv. [2] | Herbicidal effect index, Echinochloa oryzicola Vasing [3] | Herbicidal effect index, Monochoria vaginalis (Burm. F.) Presl var. plantaginea (Roxb.) Solms-Laub. [4] | herbicidal effect (index per standard of Table 21), Echinochloa curs-galli (L.) Beauv. Var. crus-galli [5] | herbicidal effect (index per standard of Table 21), Setaria viridis (L.) Beauv. [6]
1 | COc1c(CS(=O)(=O)C2=NOC(C)(C)C2)c(C)cc[n+]1[O-] [7-0009] | 4 | 4 | 5 | 5 | 5 | 5
2 | CCCCn1nc(Cl)c(CS(=O)(=O)C2=NOC(C)(C)C2)c1C(F)(F)F [3-0086] | 4 | 4 | 5 | 5 | 5 | 5
3 | CC1(C)CC(S(=O)(=O)Cc2sccc2Cl)=NO1 [1-0004] | 5 | 4 | 5 | 5 | 5 | 5
4 | CCn1nc(C(F)(F)F)c(CS(=O)(=O)C2=NOC(C)(C)C2)c1Cl [3-0073] | 5 | 4 | 5 | 5 | 5 | 5
5 | CCn1nc(Cl)c(CS(=O)(=O)C2=NOC(C)(C)C2)c1C(F)(F)F [3-0074] | 5 | 4 | 5 | 5 | 5 | 5
6 | COc1cscc1CS(=O)(=O)C1=NOC(C)(C)C1 [2-0004] | 5 | 4 | 5 | 5 | 5 | 5
7 | CC1(C)CC(S(=O)(=O)Cc2c(C(F)(F)F)cnn2-c2ccccc2)=NO1 [5-0007] | 5 | 5 | 5 | 5 | 5 | 5
8 | CC(=O)CCn1nc(C(F)(F)F)c(CS(=O)(=O)C2=NOC(C)(C)C2)c1Cl [3-0144] | 5 | 5 | 5 | 5 | 5 | 5
9 | Cn1nc(Cl)c(CS(=O)(=O)C2=NOC(C)(C)C2)c1Cl [3-0038] | 5 | 5 | 5 | 5 | 5 | 5
